# Read-outs that look alike come from different tables or passages of the source.
# How the values were obtained:
# [1] = test system: collagen-induced arthritis; conditions: WO 00/01386; cited from earlier work
# BALB/c mice = assay: LPS-induced cytokine production in vivo (murine model of LPS-induced inflammation); conditions: for inhibition at 50 mg/kg: Mus musculus; for MCP-1 production: tipifarnib
# Protocol: The experiments were performed on female BALB/c mice (6-7 week old; Charles River Laboratories, Inc. MA). […] The control mice received the vehicle (20% cyclodextran) only. 20 μg LPS (Sigma), diluted in PBS, was injected into each mouse intraperitoneally. Blood samples were collected either by eye bleeding or cardiac puncture at 1 and 2 hours after LPS injection in one experiment, and at 2 and 3 hours after LPS injection in a second experiment. Plasma samples were collected by centrifugation, and stored at ≦−20° C. before being tested for cytokines using individual ELISA kits or Luminex analysis (see below).
# Human IL-6, IL18, IL1β, MCP-1, MMP-9, and mouse IL-6, IL18, TNFα, MCP-1 and IL-1β were measured with ELISA kits (R&D Systems) according to the manufacturer's instructions.
# Samples were tested for cytokines using the Bio-plex cytokine assay kit (Bio-Rad Laboratories, Inc.) according to the manufacturer's instructions. Briefly, 50 μL anti-cytokine antibody conjugated beads were added to wells of a filter plate pre-equilibrated with assay buffer. The beads were washed, then 50 μL of undiluted cell culture supernatant or 4-fold diluted plasma samples were added and incubated for 2 hours. Biotinylated anti-cytokine antibody (25 μL) was added to each well and the plate was incubated with shaking for 1.5 hours. Streptavidin-PE (50 μL) was added to each well and the plate was incubated with shaking for 45 min. between incubations, wells were washed 3 times with 100 μL wash buffer and unbound analytes were filtered using a vacuum manifold. Following the last wash step, 125 μL of assay buffer was added to each well and the plate was placed on a shaker for 10 min. The plate was read on a Luminex^100 instrument (Luminex Corporation, Austin, Tex.) according to the manufacturer's instructions. The concentration of cytokine was determined from a standard curve assayed at the same time.
# [2] = test system: NF-κB-LH transfected HEK293 cells; assay: NF-κB reporter gene assay; format: cell-based; conditions: tipifarnib 2 or 5 μM for 18 hours, TNF-α 10 ng/ml for 4 hours
# Protocol: HEK293 cells were transfected with the NF-κB-LH plasmid (Biomyx) using Lipofectamine 2000, and stable clones were selected by culture in hygromycin (176 μg/ml). The resulting NF-κB-LH-transfected cells were seeded in DMEM/10% FCS in 96-well plates for use in luciferase reporter assays. On the following day, cells were treated with tipifarnib for 18 hours, then stimulated with TNF-α (10 ng/ml) for 4 hours, after which NF-κB activity was measured using the Steady-Glo® luciferase reporter assay system (Promega). NF-κB activation was calculated as the fold-induction by TNF-α over unstimulated control samples.
# [3] = test system: dextran sodium sulphate-induced colitis; conditions: WO 02/43733; cited from earlier work
# [4] = cited from earlier work
# [5] = cited from earlier work; remark: listed apart in the source
# [6] = second experiment, 3 hours (results not shown)
compound,measurement,setting,value
"Cn1cncc1C(N)(c1ccc(Cl)cc1)c1ccc2c(c1)c(-c1cccc(Cl)c1)cc(=O)n2C (single isomer, unassigned; (+)) [tipifarnib, (+)-6-[amino(4-chlorophenyl)(1-methyl-1H-imidazol-5-yl)methyl]-4-(3-chlorophenyl)-1-methyl-2(1H)-quinolinone]",disease scores,[1],reduction of disease scores
same,LPS-induced TNF-α production,"BALB/c mice; 50 mg/kg oral 24, 17 and 1 hour before LPS 20 μg i.p., plasma at 1 and 2 hours",highly significant inhibition
same,inhibition at 50 mg/kg,"BALB/c mice; 50 mg/kg oral before LPS, 2 hours, first experiment, read-out: inhibition of MIP-1α production",~50%
same,inhibition at 50 mg/kg,"BALB/c mice; tipifarnib 50 mg/kg oral before LPS, after 3 hours, read-out: inhibition of IL-6 production",~50%
same,LPS-induced IL-8,BALB/c mice; results not shown,No effects
same,LPS-induced RANTES,BALB/c mice; results not shown,No effects
same,IL12-p40 induction by LPS,BALB/c mice; [6],inhibited
same,IL12-p70 induction by LPS,BALB/c mice; [6],inhibited
same,IL-1β production,"BALB/c mice; tipifarnib 50 mg/kg oral before LPS, after 3 hours",almost complete inhibition
same,MCP-1 production,BALB/c mice; 2 hours,significant inhibition
same,MCP-1 production,BALB/c mice; 3 hours,a decrease that did not reach statistical significance
same,TNF-α induced NF-κB activity,[2],not inhibited
same,disease scores,[3],reduction of disease scores
same,protein binding,[4],highly protein-bound
same,plasma levels,"[5]; at 300 mg twice a day (Karp, Lancet et al. 2001)",approximately 2 μM
same,maximum tolerated dose,[5]; in a number of studies (Head and Johnston 2003),300 mg twice a day
